From US8636978B2, “Cyclized NGR peptide compounds, compositions, and methods of their use” (The United States of America, as Represented by the …, priority 2008, dated 2014)
Residues, ends and D or L forms follow the SMILES beside them. No end group written: not given here. *: point of attachment. OregonGreen488(6-carbonyl) = O=C1OC2(c3cc(F)c(O)cc3Oc3cc(O)c(F)cc32)c2cc(C(=O)*)ccc21

How the values were obtained:
[1] = system: CD13-positive HT-1080 cells
MCF7 (CD13−) cells = test: Cell binding by epifluorescent microscopy, CD13-negative cells; format: cell-based, human; conditions: cK(OG)NGRE 20 μM or anti-CD13 antibody 2.5 μg/mL, 37° C., 30 min
Protocol: (§1) Human fibrosarcoma (HT-1080) and human adenocarcinoma (MCF7) cells were purchased from American Type Culture Collection (ATCC, Manassas, Va.). HT-1080 cells were grown in MEME (ATCC) supplemented with 10% fetal bovine serum (ATCC), and MCF7 cells were grown in the same culture medium with the addition of 0.01 mg/mL bovine insulin (Sigma-Aldrich, St. Louis, Mo.). Both cell lines were maintained in a 5% CO2 incubator at 37° C. Anti-CD13 monoclonal antibody (WM15, Alexa Fluor 488-conjugated) was obtained from AbD Serotec (Raleigh, N.C.).
(§2) Cellular binding of cK(OG)NGRE to the CD13/APN marker was assessed by plating HT-1080 (CD13+) and MCF7 (CD13−) cells in eight-chambered slides (LabTekII, Nunc, Rochester, N.Y.) at a concentration of 15,000 cells/well. After 24 h, cells were washed once with phosphate-buffered saline (PBS) and incubated in complete culture media at 37° C. for 30 min with either cK(OG)NGRE (20 μM) or the anti-CD13 antibody (final concentration 2.5 μg/mL). Slides were washed twice with PBS for 5 min, fixed in 4% paraformaldehyde for 20 min, and mounted with Prolong Gold antifade reagent with DAPI (Invitrogen, Carlsbad, Calif.) and imaged with an epifluorescent microscope (Zeiss Axio Imager.M1, Thornwood, N.Y.) after 24 h. […]

HT-1080 (CD13+) cells = test: Cell binding by epifluorescent microscopy, CD13-positive cells; format: cell-based, human; conditions: 37° C.
Protocol: as §1, §2

Row | EC50 [1] | Compound | in vitro binding to MCF7 cells (fluorescence micrographs) (MCF7 (CD13−) cells) | in vitro binding to HT-1080 cells (fluorescence micrographs) (HT-1080 (CD13+) cells; cK(OG)NGRE 20 μM or anti-CD13 antibody 2.5 μg/mL, 30 min) | localization of fluorescence in HT-1080 cells (HT-1080 (CD13+) cells; epifluorescent microscopy, 30 min incubation)
1 | 61 µM | N=C(N)NCCC[C@@H]1NC(=O)CNC(=O)[C@H](CC(N)=O)NC(=O)[C@H](CCCCNC(=O)c2ccc3c(c2)C2(OC3=O)c3cc(F)c(O)cc3Oc3cc(O)c(F)cc32)NC(=O)[C@H](CCC(N)=O)NC1=O [cK(OG)NGRE] (cyclo(K(OregonGreen488(6-carbonyl))NGRQ)) | minimal binding | clearly demonstrated binding | internalization of the peptide
2 | 220 µM | KNGRE [reference compound] | – | – | –
